Reference: patent US20040028609A1, “Two-dimensionally quantified image method for distinguishing and quantifying over-growing tissue or the like” (priority 2000, published 2004)
Like-named read-outs stand apart in the source and are kept apart here. One block for each compound: values may come before it.

Assays:
[1] = BALB/c, mouse, in vivo
Procedure: The back of BALB/c nude mice was inoculated with a 10^7 Hu09 cells (human osteosarcoma) grown in culture. 3 weeks later, animals with granulation tissue with a collagen layer were submitted for the experiment. […] 50 μm thick whole body sections cut longitudinally were prepared using a Leica Macrocut. The sections were stored in a sealed container and lyophilized. The dried sections in contact with a Fuji imaging plate were exposed in a dark box, and the IP was then processed with the Fuji BAS2000 analyzer to generate a digital image (FIG. 1).
The specimen was then placed in contact with IP, and 16 hours later the data was converted into a computer image for analysis.

[2] = system: jejunum, basal layer of the intestinal mucosa; assay: [2-^14C] thymidine injected into exposed jejunum, semi-microautoradiograph; type: in vivo, Wistar rat; details: 5 μCi injected into exposed jejunum, 5 minutes
Procedure: The specimen used was the jejunum from a healthy 7-week old Wistar rat, male. Under ethyl ether anesthesia, the abdomen was opened to expose the jejunum, which was marked with methylene blue. […] Frozen sections were prepared with a microtome, and a semi-microautoradiographs were obtained.

[3] = system: excised jejunum, basal layer of the intestinal tract mucosa; assay: [2-^14C] thymidine incorporation in excised, cultured jejunum (in vitro system); type: cell-based, Wistar rat; details: 5 μCi injected into excised jejunum, cultured 10 minutes at 37° C.
Procedure: Next, the jejunum of a healthy Wistar male rat at seven weeks of age was used. The part of the abdomen was opened under ethyl ether anesthesia, and the jejunum of about 2-4 cm in length was excised. […] Then, the specimen was immediately frozen in liquid nitrogen and sectioned using a microtome to obtain frozen sections. Semi-microautoradiographs were prepared from these sections.

[4] = Fate of intravenously administered [2-^14C] thymidine in rats; type: in vivo; details: intravenous
Procedure: Extensive studies by the present inventors led to the discovery that when “thymidine” is intravenously administered to rats, the thymidine administered is utilized only in the S phase of the cell cycle, and more precisely, within 3 minutes after the administration of the thymidine. This observation is based on the findings obtained using a “thymidine” with the “2” carbon position within its structure labeled with ^14C and tracking the fate of the administered thymidine. It was discovered that thymidine not incorporated during the cell division is rapidly metabolized in the liver, leucocytes, and the like and mostly excreted out of the body as carbon dioxide gas. Based on these findings, the present inventors discovered that a thymidine with “2” carbon position labeled with ^14C is an extremely important marker for specifying the frequency of dividing cells in vivo and for localizing its site(s) within the body. It was also discovered that a (1,3-N) thymidine, obtained by attaching a fluorescent compound to the nitrogen atoms at 1,3-positions of the thymidine, can also be used as the labeled thymidine.

bone marrow (B) = details: for effect of ^90Y radiation on [2-^14C] thymidine incorporation (suppression of mitosis), B: bone marrow
Procedure: (§1) ^90YCl at the three levels, 0.5 μCi (18.5 kBq), 2 μCi (74 kBq) or 10 μCi (370 kBq), was injected intravenously into the tail of male BALB/c mice in groups of 6 mice per group (a total of 18 mice). […] The animals were sacrificed one hour later under ether anesthesia, and the macroautoradiographs were prepared as described in Example 1. […] FIG. 12 is a microautoradiograph of the bone marrow, showing the bone marrow from a mouse sacrificed 1 hour after [2-^14C] was administered, which was 48 hours after the ^90Y administration.
(§2) On the sections were placed five sheets of 10 μm thick aluminum foil, and this was brought into contact with IP to generate only the ^90Y image. […] If the image of the two radiation nuclides is to be obtained simultaneously, one can place an industrial X-ray film in contact with said section, followed by five sheets of aluminum foil, and then the IP; these are then stored in a dark box. After about 7 days, the X-ray film is taken out and photographically processed by the usual method to produce the image, while the IP is processed by Fuji BAS2000 for computer processing of the images. This method provides ^14C image on the industrial X-ray film. This method also gives a ^90Y image on the IP.

[5] = system: digestive tract mucosa (m)
Procedure: as §1, §2

tumor (T) = assay: Effect of ^90Y radiation on mitosis, [2-^14C] thymidine incorporation as marker of DNA replication (macroautoradiography): tumor; type: in vivo, BALB/c mice; also: key: −: no effect; ±: Slight inhibition; +: Decrease in function; ++: Definite decrease in function; +++: No incorporation of ^14C marker in DNA replication
[6] = Procedure: After administration of the aforementioned ^90Y into the mouse tail vein the systemic distribution was studied by the following experiments. The animals used were those obtained from the source as used for the BALB/c (body weight 25 g) described in Examples 1 and 2 above. After administration of an aqueous 0.5 μCi (18.5 kBq) ^90YCl citrate solution per male mouse in the tail vein, analysis was conducted over time at 5 time points: at 10 minutes, 1, 6, 24, and 48 hours. The animals were sacrificed under an ether anesthesia, and the whole body autoradiographs were prepared using with the same procedure as that used in Example 1 and Example 2 (FIGS. 7, 8, 9, 10, 11).
[7] = 0.5 μCi ^90Y i.v., 1 hr after ^90Y
[8] = 0.5 μCi ^90Y i.v., 6 hr after ^90Y
[9] = 0.5 μCi ^90Y i.v., 24 hr after ^90Y
[10] = 0.5 μCi ^90Y i.v., 48 hr after ^90Y
[11] = 0.5 μCi ^90Y i.v., 72 hr after ^90Y
[12] = 0.5 μCi ^90Y i.v., 168 hr after ^90Y
[13] = 2 μCi ^90Y i.v., 1 hr after ^90Y
[14] = 2 μCi ^90Y i.v., 6 hr after ^90Y
[15] = 2 μCi ^90Y i.v., 24 hr after ^90Y
[16] = 2 μCi ^90Y i.v., 48 hr after ^90Y
[17] = 2 μCi ^90Y i.v., 72 hr after ^90Y
[18] = 2 μCi ^90Y i.v., 168 hr after ^90Y
[19] = 10 μCi ^90Y i.v., 1 hr after ^90Y
[20] = 10 μCi ^90Y i.v., 6 hr after ^90Y
[21] = 10 μCi ^90Y i.v., 24 hr after ^90Y
[22] = 10 μCi ^90Y i.v., 48 hr after ^90Y
[23] = 10 μCi ^90Y i.v., 72 hr after ^90Y
[24] = 10 μCi ^90Y i.v., 168 hr after ^90Y

time to incorporation into DNA after injection [1]: less than 3 minutes
time by which the ^14C component is completely excreted out of other areas, except the bone and bone marrow ([1]; iv): ≤ 1 h
time after administration within which thymidine is utilized (S phase) [4]: ≤ 3 min
Structure (SMILES): Cc1cn([C@H]2C[C@H](O)[C@@H](CO)O2)c(=O)[nH]c1=O [[2-^14C] thymidine]
incorporation in the basal layer of the intestinal mucosa (semi-microautoradiograph) [2]: darkened images were clearly recorded
incorporation in the basal layer of the intestinal tract mucosa (semi-microautoradiograph) [3]: substantially darkened images

Structure (SMILES): [Cl][90Y]([Cl])[Cl] [^90Y, ^90YCl3]
effect of ^90Y radiation on [2-^14C] thymidine incorporation (suppression of mitosis), B (bone marrow (B); [7]): −
effect of ^90Y radiation on [2-^14C] thymidine incorporation (suppression of mitosis), B (bone marrow (B); [8]): −
effect of ^90Y radiation on [2-^14C] thymidine incorporation (suppression of mitosis), B (bone marrow (B); [9]): −
effect of ^90Y radiation on [2-^14C] thymidine incorporation (suppression of mitosis), B (bone marrow (B); [10]): +
effect of ^90Y radiation on [2-^14C] thymidine incorporation (suppression of mitosis), B (bone marrow (B); [11]): +
effect of ^90Y radiation on [2-^14C] thymidine incorporation (suppression of mitosis), B (bone marrow (B); [12]): ±
effect of ^90Y radiation on [2-^14C] thymidine incorporation (suppression of mitosis), B (bone marrow (B); [13]): −
effect of ^90Y radiation on [2-^14C] thymidine incorporation (suppression of mitosis), B (bone marrow (B); [14]): +
effect of ^90Y radiation on [2-^14C] thymidine incorporation (suppression of mitosis), B (bone marrow (B); [15]): ++
effect of ^90Y radiation on [2-^14C] thymidine incorporation (suppression of mitosis), B (bone marrow (B); [16]): ++
effect of ^90Y radiation on [2-^14C] thymidine incorporation (suppression of mitosis), B (bone marrow (B); [17]): ++
effect of ^90Y radiation on [2-^14C] thymidine incorporation (suppression of mitosis), B (bone marrow (B); [18]): +
effect of ^90Y radiation on [2-^14C] thymidine incorporation (suppression of mitosis), B (bone marrow (B); [19]): ±
effect of ^90Y radiation on [2-^14C] thymidine incorporation (suppression of mitosis), B (bone marrow (B); [20]): ++
effect of ^90Y radiation on [2-^14C] thymidine incorporation (suppression of mitosis), B (bone marrow (B); [21]): +++
effect of ^90Y radiation on [2-^14C] thymidine incorporation (suppression of mitosis), B (bone marrow (B); [22]): +++
effect of ^90Y radiation on [2-^14C] thymidine incorporation (suppression of mitosis), B (bone marrow (B); [23]): +++
effect of ^90Y radiation on [2-^14C] thymidine incorporation (suppression of mitosis), B (bone marrow (B); [24]): +++
level that showed cytotoxic effects near the sites of ^90Y deposition (bone marrow (B); bone / bone marrow): about 5 μCi/25 g
activity of the lymphocytes in the bone marrow to degrade [2-^14C] thymidine (bone marrow (B); first group, 0.5 μCi administration): only a slight decrease
effect of ^90Y radiation on [2-^14C] thymidine incorporation (suppression of mitosis), m [5, 7]: −
effect of ^90Y radiation on [2-^14C] thymidine incorporation (suppression of mitosis), m [5, 8]: −
effect of ^90Y radiation on [2-^14C] thymidine incorporation (suppression of mitosis), m [5, 9]: −
effect of ^90Y radiation on [2-^14C] thymidine incorporation (suppression of mitosis), m [5, 10]: −
effect of ^90Y radiation on [2-^14C] thymidine incorporation (suppression of mitosis), m [5, 11]: −
effect of ^90Y radiation on [2-^14C] thymidine incorporation (suppression of mitosis), m [5, 12]: −
effect of ^90Y radiation on [2-^14C] thymidine incorporation (suppression of mitosis), m [5, 13]: −
effect of ^90Y radiation on [2-^14C] thymidine incorporation (suppression of mitosis), m [5, 14]: −
effect of ^90Y radiation on [2-^14C] thymidine incorporation (suppression of mitosis), m [5, 15]: −
effect of ^90Y radiation on [2-^14C] thymidine incorporation (suppression of mitosis), m [5, 16]: −
effect of ^90Y radiation on [2-^14C] thymidine incorporation (suppression of mitosis), m [5, 17]: −
effect of ^90Y radiation on [2-^14C] thymidine incorporation (suppression of mitosis), m [5, 18]: −
effect of ^90Y radiation on [2-^14C] thymidine incorporation (suppression of mitosis), m [5, 19]: −
effect of ^90Y radiation on [2-^14C] thymidine incorporation (suppression of mitosis), m [5, 20]: −
effect of ^90Y radiation on [2-^14C] thymidine incorporation (suppression of mitosis), m [5, 21]: −
effect of ^90Y radiation on [2-^14C] thymidine incorporation (suppression of mitosis), m [5, 22]: −
effect of ^90Y radiation on [2-^14C] thymidine incorporation (suppression of mitosis), m [5, 23]: −
effect of ^90Y radiation on [2-^14C] thymidine incorporation (suppression of mitosis), m [5, 24]: −
effect of ^90Y radiation on [2-^14C] thymidine incorporation (suppression of mitosis), T (tumor (T); [7]): −
effect of ^90Y radiation on [2-^14C] thymidine incorporation (suppression of mitosis), T (tumor (T); [8]): −
effect of ^90Y radiation on [2-^14C] thymidine incorporation (suppression of mitosis), T (tumor (T); [9]): −
effect of ^90Y radiation on [2-^14C] thymidine incorporation (suppression of mitosis), T (tumor (T); [10]): +
effect of ^90Y radiation on [2-^14C] thymidine incorporation (suppression of mitosis), T (tumor (T); [11]): +
effect of ^90Y radiation on [2-^14C] thymidine incorporation (suppression of mitosis), T (tumor (T); [12]): ±
effect of ^90Y radiation on [2-^14C] thymidine incorporation (suppression of mitosis), T (tumor (T); [13]): −
effect of ^90Y radiation on [2-^14C] thymidine incorporation (suppression of mitosis), T (tumor (T); [14]): +
effect of ^90Y radiation on [2-^14C] thymidine incorporation (suppression of mitosis), T (tumor (T); [15]): ++
effect of ^90Y radiation on [2-^14C] thymidine incorporation (suppression of mitosis), T (tumor (T); [16]): ++
effect of ^90Y radiation on [2-^14C] thymidine incorporation (suppression of mitosis), T (tumor (T); [17]): ++
effect of ^90Y radiation on [2-^14C] thymidine incorporation (suppression of mitosis), T (tumor (T); [18]): +
effect of ^90Y radiation on [2-^14C] thymidine incorporation (suppression of mitosis), T (tumor (T); [19]): ±
effect of ^90Y radiation on [2-^14C] thymidine incorporation (suppression of mitosis), T (tumor (T); [20]): ++
effect of ^90Y radiation on [2-^14C] thymidine incorporation (suppression of mitosis), T (tumor (T); [21]): +++
effect of ^90Y radiation on [2-^14C] thymidine incorporation (suppression of mitosis), T (tumor (T); [22]): +++
effect of ^90Y radiation on [2-^14C] thymidine incorporation (suppression of mitosis), T (tumor (T); [23]): +++
effect of ^90Y radiation on [2-^14C] thymidine incorporation (suppression of mitosis), T (tumor (T); [24]): +++
accumulation in the skeletal bones, share of the total dose ([6]; 0.5 μCi ^90YCl citrate solution, tail vein, IP images at 10 minutes to 48 hours): ≥ 70%
^90Y remaining in the liver, spleen, and kidney ([6]; 0.5 μCi, tail vein, 24 hours after administration): only a slight residue
localization in skin, digestive tract epithelium, and vascular endothelial cells ([6]; 0.5 μCi, tail vein, image analysis): did not localize
^90Y image at the site of the osteosarcoma HU09 ([6]; whole body autoradiograph, compared with bones): blackened image completely equivalent to the extent seen in the bones
